In ChEMBL document CHEMBL1821633, “Norcantharimide analogues possessing terminal phosphate esters and their anti-cancer activity” (2011):

Legend:
Format in all cases: functional
HT-29 = assay: Antiproliferative activity against human HT-29 cells after 72 hrs by MTT assay; settings: HT-29, 72 h
SW480 = assay: Antiproliferative activity against human SW480 cells after 72 hrs by MTT assay; settings: SW480, 72 h
MCF7 = assay: Antiproliferative activity against human MCF7 cells after 72 hrs by MTT assay; settings: MCF7, 72 h
A2780 = assay: Antiproliferative activity against human A2780 cells after 72 hrs by MTT assay; settings: A2780, 72 h
NCI-H460 = assay: Antiproliferative activity against human H460 cells after 72 hrs by MTT assay; settings: NCI-H460, 72 h
A-431 = assay: Antiproliferative activity against human A431 cells after 72 hrs by MTT assay; settings: A-431, 72 h
DU-145 = assay: Antiproliferative activity against human DU145 cells after 72 hrs by MTT assay; settings: DU-145, 72 h
[1] = Antiproliferative activity against human BE(2)-C cells after 72 hrs by MTT assay
[2] = Antiproliferative activity against human SJ-G2 cells after 72 hrs by MTT assay; settings: SJ-G2, 72 h

| GI50 (HT-29) [µM] | GI50 (SW480) [µM] | GI50 (MCF7) [µM] | GI50 (A2780) [µM] | GI50 (NCI-H460) [µM] | GI50 (A-431) [µM] | GI50 (DU-145) [µM] | SMILES | GI50 [1] [µM] | GI50 [2] [µM] |
| --- | --- | --- | --- | --- | --- | --- | --- | --- | --- |
| > 100 | > 100 | > 100 | > 100 | > 100 | > 100 | > 100 | O=C1[C@@H]2[C@H](C(=O)N1CCOP(=O)(OCC(Cl)(Cl)Cl)OCC(Cl)(Cl)Cl)[C@H]1CC[C@@H]2O1 | > 100 | > 100 |
| > 100 | > 100 | > 100 | > 100 | > 100 | > 100 | > 100 | O=C1[C@@H]2[C@H](C(=O)N1CCCCCCO)[C@H]1CC[C@@H]2O1 | > 100 | > 100 |
| 33 | 18 | 28 | 15 | 49 | 27 | 21 | CCOP(=O)(OCC)OCCN1C(=O)[C@@H]2[C@H](C1=O)[C@H]1CC[C@@H]2O1 |  | 43 |
| > 100 | > 100 | > 100 | > 100 | > 100 | > 100 | > 100 | CCOP(=O)(OCC)OCCCCCCN1C(=O)[C@@H]2[C@H](C1=O)[C@H]1CC[C@@H]2O1 | > 100 | > 100 |
| > 100 | > 100 | > 100 | > 100 | > 100 | > 100 | > 100 | CCOP(=O)(OCC)OCCCCN1C(=O)[C@@H]2[C@H](C1=O)[C@H]1CC[C@@H]2O1 | > 100 | > 100 |
| > 100 | > 100 | > 100 | > 100 | > 100 | > 100 | > 100 | CCOP(=O)(OCC)OCCCCCN1C(=O)[C@@H]2[C@H](C1=O)[C@H]1CC[C@@H]2O1 | > 100 | > 100 |
| 57 | 33 | 50 | 22 | 89 | 47 | 36 | CCOP(=O)(OCC)O[C@H]1CCCC[C@@H]1N1C(=O)[C@@H]2[C@H](C1=O)[C@H]1CC[C@@H]2O1 | 31 | 60 |
| 11 | 10 | 12 | 7.7 | 13 | 12 | 13 | O=C1[C@@H]2[C@H](C(=O)N1CCCCCCOP(=O)(OCC(Cl)(Cl)Cl)OCC(Cl)(Cl)Cl)[C@H]1CC[C@@H]2O1 | 9.3 | 14 |
| 57 | 72 | 60 | 47 | 78 | 80 | > 100 | O=C1[C@@H]2[C@H](C(=O)N1CCCOP(=O)(OCC(Cl)(Cl)Cl)OCC(Cl)(Cl)Cl)[C@H]1CC[C@@H]2O1 | 50 | 58 |
| 16 | 32 | 28 | 26 | 56 | 31 | 49 | O=C1[C@@H]2[C@H](C(=O)N1CCCCOP(=O)(OCC(Cl)(Cl)Cl)OCC(Cl)(Cl)Cl)[C@H]1CC[C@@H]2O1 | 40 | 48 |
| 15 | 17 | 16 | 16 | 29 | 18 | 26 | O=C1[C@@H]2[C@H](C(=O)N1CCCCCOP(=O)(OCC(Cl)(Cl)Cl)OCC(Cl)(Cl)Cl)[C@H]1CC[C@@H]2O1 | 22 | 19 |
| 56 | 69 | 54 | 39 | > 100 | 48 | 69 | O=C1[C@@H]2[C@H](C(=O)N1[C@H]1CCCC[C@@H]1OP(=O)(OCC(Cl)(Cl)Cl)OCC(Cl)(Cl)Cl)[C@H]1CC[C@@H]2O1 | 51 | 45 |

| SMILES | GI50 (HT-29) [µM] | GI50 (SW480) [µM] | GI50 (MCF7) [µM] | GI50 (A2780) [µM] | GI50 (NCI-H460) [µM] | GI50 (A-431) [µM] | GI50 (DU-145) [µM] | GI50 [1] [µM] | GI50 [2] [µM] |
| --- | --- | --- | --- | --- | --- | --- | --- | --- | --- |
| O=C1[C@@H]2[C@H](C(=O)N1CCO)[C@H]1CC[C@@H]2O1 | > 100 | > 100 | > 100 | > 100 | > 100 | > 100 | > 100 | > 100 | > 100 |
| O=C1[C@@H]2[C@H](C(=O)N1CCOP(=O)(Oc1ccccc1)Oc1ccccc1)[C@H]1CC[C@@H]2O1 | > 100 | > 100 | > 100 | > 100 | > 100 | > 100 | > 100 | > 100 | > 100 |
| O=C1[C@@H]2[C@H](C(=O)N1CCCCCCOP(=O)(Oc1ccccc1)Oc1ccccc1)[C@H]1CC[C@@H]2O1 | 5.4 | 14 | 9.1 | 11 | 25 | 13 | 7 | 14 | 14 |
| O=C1[C@@H]2[C@H](C(=O)N1CCCOP(=O)(Oc1ccccc1)Oc1ccccc1)[C@H]1CC[C@@H]2O1 | > 100 | > 100 | > 100 | > 100 | > 100 | > 100 | > 100 | > 100 | > 100 |
| O=C1[C@@H]2[C@H](C(=O)N1CCCCOP(=O)(Oc1ccccc1)Oc1ccccc1)[C@H]1CC[C@@H]2O1 | 14 | 28 | 19 | 17 | 64 | 21 | 13 | 25 | 17 |
| O=C1[C@@H]2[C@H](C(=O)N1CCCCCOP(=O)(Oc1ccccc1)Oc1ccccc1)[C@H]1CC[C@@H]2O1 | 42 | 50 | 31 | 46 | 63 | 45 | 52 | 56 | 50 |
| O=C1[C@@H]2[C@H](C(=O)N1[C@H]1CCCC[C@@H]1OP(=O)(Oc1ccccc1)Oc1ccccc1)[C@H]1CC[C@@H]2O1 | 11 | 26 | 14 | 24 | 48 | 26 | 35 | 28 | 31 |
| O=C1c2ccccc2C(=O)N1CCCOP(=O)(Oc1ccccc1)Oc1ccccc1 | > 100 | > 100 | > 100 | > 100 | > 100 | > 100 | > 100 | > 100 | > 100 |
| O=C1OC(=O)C2C3CCC(O3)C12 (stereo not drawn) [DEMETHYL-CANTHARIDIN] | 57 | 44 | 68 | 38 | 45 | 31 | 28 | 43 | 23 |
